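Interpolation was linear, between the two tested concentrations surrounding the appropriate level; five concentrations were tested over 48 hours in 96-well plates. GI50 = concentration required for 50% inhibition of growth. The concentration for full growth arrest is given as TGI.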
Legend:
Test in all cases: growth of human tumour cells (NCI), 48 h
[1] = system: 786-0 renal
[2] = system: A498 renal
[3] = system: A549 NSCLC
[4] = system: ACHN renal
[5] = system: BT-549 breast
[6] = system: CAKI-1 renal
[7] = system: CCRF-CEM leukemia
[8] = system: COLO 205 colon
[9] = system: DU-145 prostate
[10] = system: EKVX NSCLC
[11] = system: HCC-2998 colon
[12] = system: HCT-116 colon
[13] = system: HCT-15 colon
[14] = system: HL-60(TB) leukemia
[15] = system: HOP-62 NSCLC
[16] = system: HOP-92 NSCLC
[17] = system: HS 578T breast
[18] = system: HT29 colon
[19] = system: IGROV1 ovarian
[20] = system: K-562 leukemia
[21] = system: KM12 colon
[22] = system: LOX IMVI melanoma
[23] = system: M14 melanoma
[24] = system: MALME-3M melanoma
[25] = system: MCF7 breast
[26] = system: MDA-MB-231 breast
[27] = system: MDA-MB-435
[28] = system: MOLT-4 leukemia
[29] = system: NCI-H226 lung
[30] = system: NCI-H460 lung
[31] = system: NCI-H522 lung
[32] = system: NCI/ADR-RES ovarian
[33] = system: OVCAR-3 ovarian
[34] = system: OVCAR-4 ovarian
[35] = system: OVCAR-5 ovarian
[36] = system: OVCAR-8 ovarian
[37] = system: PC-3 prostate
[38] = system: RPMI-8226 leukemia
[39] = system: RXF 393 renal
[40] = system: SF-268 CNS
[41] = system: SF-295 CNS
[42] = system: SF-539 CNS
[43] = system: SK-MEL-2 melanoma
[44] = system: SK-MEL-28 melanoma
[45] = system: SK-MEL-5 melanoma
[46] = system: SK-OV-3 ovarian
[47] = system: SN12C renal
[48] = system: SNB-19 CNS
[49] = system: SNB-75 CNS
[50] = system: SW-620 colon
[51] = system: T-47D breast
[52] = system: TK-10 renal
[53] = system: U251 CNS
[54] = system: UACC-257 melanoma
[55] = system: UACC-62 melanoma
[56] = system: UO-31 renal

`N#Cc1c(-c2ccc(Cl)cc2)nc(SCc2ccccc2)nc1N1CCNCC1` showed a GI50 [1] of 1420 nM, a TGI [1] of 2960 nM and a GI50 [2] of 1690 nM. The TGI [2] was 3370 nM, the GI50 [3] was 1550 nM and the TGI [3] was 2990 nM. The GI50 [4] was 1670 nM, the TGI [4] was 3040 nM and the GI50 [5] was 1690 nM. For the same molecule, the TGI [5] was 3140 nM, the GI50 [6] was 1480 nM and the TGI [6] was 2810 nM. For the same molecule, the GI50 [7] was 1970 nM, the TGI [7] was 4510 nM and the GI50 [8] was 1650 nM. For the same molecule, the TGI [8] was 3040 nM, the GI50 [9] was 1700 nM and the TGI [9] was 3070 nM. For the same molecule, the GI50 [10] was 1520 nM, the TGI [10] was 2890 nM and the GI50 [11] was 1600 nM. It also gave a TGI [11] of 3030 nM, a GI50 [12] of 1640 nM and a TGI [12] of 3120 nM. The GI50 [13] was 1600 nM, the TGI [13] was 3020 nM and the GI50 [14] was 1440 nM. For the same molecule, the TGI [14] was 3710 nM, the GI50 [15] was 1750 nM and the TGI [15] was 3400 nM. For the same molecule, the GI50 [16] was 1060 nM, the TGI [16] was 2390 nM and the GI50 [17] was 1890 nM. The TGI [17] was 4200 nM, the GI50 [18] was 1650 nM and the TGI [18] was 3020 nM. It also gave a GI50 [19] of 1610 nM, a TGI [19] of 3060 nM and a GI50 [20] of 1770 nM. It also gave a TGI [20] of 5810 nM, a GI50 [21] of 1770 nM and a TGI [21] of 3290 nM. It also gave a GI50 [22] of 2050 nM, a TGI [22] of 3550 nM and a GI50 [23] of 1650 nM. The TGI [23] was 3080 nM, the GI50 [24] was 1710 nM and the TGI [24] was 3320 nM. For the same molecule, the GI50 [25] was 1590 nM, the TGI [25] was 3200 nM and the GI50 [26] was 1730 nM. The TGI [26] was 3370 nM, the GI50 [27] was 1700 nM and the TGI [27] was 3100 nM. For the same molecule, the GI50 [28] was 1600 nM, the TGI [28] was 3690 nM and the GI50 [29] was 1840 nM. The TGI [29] was 3530 nM, the GI50 [30] was 1720 nM and the TGI [30] was 3190 nM. It also gave a GI50 [31] of 1500 nM, a TGI [31] of 2900 nM and a GI50 [32] of 1600 nM. It also gave a TGI [32] of 3180 nM, a GI50 [33] of 1730 nM and a TGI [33] of 3180 nM. The GI50 [34] was 1640 nM, the TGI [34] was 3080 nM and the GI50 [35] was 1640 nM. The TGI [35] was 3020 nM, the GI50 [36] was 1630 nM and the TGI [36] was 3030 nM. For the same molecule, the GI50 [37] was 1610 nM, the TGI [37] was 3080 nM and the GI50 [38] was 1900 nM. For the same molecule, the TGI [38] was 4490 nM, the GI50 [39] was 1580 nM and the TGI [39] was 3020 nM. For the same molecule, the GI50 [40] was 1620 nM, the TGI [40] was 3200 nM and the GI50 [41] was 1750 nM. For the same molecule, the TGI [41] was 3160 nM, the GI50 [42] was 1780 nM and the TGI [42] was 3200 nM. The GI50 [43] was 1600 nM, the TGI [43] was 3020 nM and the GI50 [44] was 1780 nM. The TGI [44] was 3190 nM, the GI50 [45] was 1760 nM and the TGI [45] was 3140 nM. The GI50 [46] was 1870 nM, the TGI [46] was 3570 nM and the GI50 [47] was 1770 nM. The TGI [47] was 3270 nM, the GI50 [48] was 1610 nM and the TGI [48] was 3080 nM. For the same molecule, the GI50 [49] was 1330 nM, the TGI [49] was 2680 nM and the GI50 [50] was 1690 nM. For the same molecule, the TGI [50] was 3220 nM, the GI50 [51] was 1650 nM and the TGI [51] was 3260 nM. It also gave a GI50 [52] of 1510 nM, a TGI [52] of 2890 nM and a GI50 [53] of 1580 nM. For the same molecule, the TGI [53] was 2940 nM, the GI50 [54] was 1550 nM and the TGI [54] was 2960 nM. It also gave a GI50 [55] of 1770 nM, a TGI [55] of 3210 nM and a GI50 [56] of 1350 nM. It also gave a TGI [56] of 2640 nM.
